Measurements: article PMC3366211, “Leishmanicidal Activity of Nine Novel Flavonoids from Delphinium staphisagria” (The Scientific World Journal, 2012)

Legend:
[1] = test system: L. infantum promastigotes; experiment: Metabolite excretion (1H-NMR); assay type: cell-based, Leishmania infantum; settings: IC25, 96 hours, vs control
Method: (§1) Cultures of L. infantum and L. braziliensis promastigotes (initial concentration 5 × 10^5 cells/mL) received IC25 concentrations of the compounds (except for control cultures). After incubation for 96 hours at 28°C, the cells were centrifuged at 400 g for 10 min. Then supernatants were collected to determine the excreted metabolites using ^1H-NMR, and, eventually, chemical displacements were expressed in parts per million (ppm), using sodium 2,2-dimethyl-2-silapentane-5-sulphonate as the reference signal. The chemical displacements used to identify the respective metabolites were consistent with those described by Fernández-Becerra et al.

[2] = test system: L. infantum promastigote forms; experiment: Promastigote forms assay; assay type: cell-based, Leishmania infantum; settings: for SI Promastigote forms: IC50 macrophages/IC50 parasite form; for IC50: Leishmania infantum, 72 h; for times SI exceeds the reference drug SI (all forms): extracellular and intracellular forms; for times SI exceeds the reference drug SI (all forms) / number of times that compound SI exceeds the reference drug SI, Promastigote forms: reference Glucantime; for number of times that compound SI exceeds the reference drug SI, Promastigote forms: in brackets
Method: (§2) The compounds obtained were dissolved in the culture medium, at dosages of 100, 50, 25, 10, and 1 μM. The effects of each compound against promastigote forms were tested at 72 hours using a Neubauer haemocytometric chamber. The antileishmanial effect is expressed as the IC50, that is, the concentration required to give 50% inhibition, calculated by linear regression analysis from the Kc values of the concentrations employed.

[3] = test system: L. braziliensis promastigotes; experiment: Metabolite excretion (1H-NMR); assay type: cell-based, Leishmania braziliensis; settings: IC25, 96 hours, vs control
Method: as §1

[4] = test system: L. braziliensis intracellular amastigote forms; experiment: Intracellular amastigote forms assay in J774.2 macrophages; assay type: cell-based, Leishmania braziliensis; settings: for SI Intracellular amastigote forms / number of times that compound SI exceeds the reference drug SI, Intracellular amastigote forms: L. braziliensis; for SI Intracellular amastigote forms: IC50 macrophages/IC50 parasite form; for number of times that compound SI exceeds the reference drug SI, Intracellular amastigote forms: in brackets, reference Glucantime; for IC50: Leishmania braziliensis, L. braziliensis in J774.2 macrophages, 72 h
Method: (§3) Cells were seeded at a density of 1 × 10^4 cells/well in 24-well microplates (Nunc) with rounded coverslips on the bottom and cultured for 2 days. Afterwards the cells were infected in vitro with promastigote forms of L. infantum and L. braziliensis, at a ratio of 10 : 1 during 24 hours. The non-phagocytosed parasites were removed by washing, and then the drugs (at 1, 10, 25, 50, 100 μM) were added. Macrophages with the drugs were incubated for 72 hours at 37°C in 5% CO2.
(§4) Drug activity was determined on the basis of number of amastigotes in treated and untreated cultures in methanol-fixed and Giemsa-stained preparations. The number of amastigotes was determined by analyzing 200 host cells distributed in randomly chosen microscopic fields. The antileishmanial effect is expressed as the IC50 values are the means of three separate determinations.

L. braziliensis = experiment: Infection assay in J774.2 macrophages; assay type: cell-based, Leishmania braziliensis; settings: IC25 concentration; for infection rate decrease, percentage of inhibition capacity: with respect to control
Method: (§5) J774.2 macrophage cells were grown under the same conditions expressed in amastigote forms assay during two days. Afterwards, the cells were infected in vitro with promastigote forms of L. infantum and L. braziliensis, at a ratio of 10 : 1. The drugs (IC25 concentrations) were added immediately after infection and were incubated for 12 hours at 37°C in 5% CO2. The nonphagocytosed parasites and the drugs were removed by washing, and then the infected cultures were grown for 10 days in fresh medium. Fresh culture medium was added every 48 h. The drug activity was determined from the percentage of infected cells and the number of amastigotes per infected cell (in treated and untreated cultures) in methanol-fixed and Giemsa-stained preparations. The percentage of infected cells and the mean number of amastigotes per infected cell were determined by analyzing 200 host cells distributed in randomly chosen microscopic fields. Values are the average of three separate determinations.

[5] = test system: L. infantum promastigotes; experiment: Ultrastructural alterations (TEM); assay type: cell-based, Leishmania infantum; settings: IC25, 96 hours
Method: (§6) The parasites were cultured at a density of 5 × 10^5 cells/mL in MTL medium, and the cultures contained drugs at the IC25 concentration.
(§7) After 96 hours, those cultures were centrifuged at 400 g for 10 min, and the pellets produced were washed in PBS and then mixed with 2% (v/v) P-formaldehyde-glutaraldehyde in 0.05 M cacodylate buffer (pH 7.4) for 4 hours at 4°C. After that, the pellets were prepared for TEM employing the technique of González et al..

[6] = test system: L. braziliensis promastigote forms; experiment: Promastigote forms assay; assay type: cell-based, Leishmania braziliensis; settings: for SI Promastigote forms: IC50 macrophages/IC50 parasite form; for IC50: Leishmania braziliensis, 72 h; for number of times that compound SI exceeds the reference drug SI, Promastigote forms: in brackets, reference Glucantime
Method: as §2

J774.2 macrophages = experiment: Cytotoxicity test for macrophages (flow cytometry); assay type: cell-based, BALB/c rat; settings: Mus musculus, J774.2, 72 h, J774.2 macrophages after 72 h of culture; read-out: Macrophage toxicity IC50
Method: J774.2 macrophages (ECACC number 91051511) were originally obtained from a tumour in a female BALB/c […] in 1968. The cytotoxicity test for macrophages was performed according to the methodology of González et al.. After 72 hours of treatment, cell viability was determined by flow cytometry. Thus, 100 μL/well of propidium iodide solution ([…]) was added and incubated for 10 min at 28°C in darkness. Afterwards, 100 μL/well of fluorescein diacetate (100 ng/mL) was added and incubated under the same conditions. Finally, the cells were recovered by centrifugation at 400 g for 10 min and the precipitate washed with phosphate buffered saline (PBS). Flow cytometric analysis was performed with a FACSVantage flow cytometer (Becton Dickinson). The percentage viability was calculated in comparison with the control culture. The IC50 was calculated using linear regression analysis from the Kc values of the concentrations employed.

L. infantum = experiment: Infection assay in J774.2 macrophages; assay type: cell-based, Leishmania infantum; settings: IC25 concentration; for infection rate decrease, percentage of inhibition capacity: with respect to control
Method: as §5

[7] = test system: L. infantum axenic amastigote forms; experiment: Axenic amastigote forms assay; assay type: cell-based, Leishmania infantum; settings: for SI Axenic amastigote forms: IC50 macrophages/IC50 parasite form; for IC50: Leishmania infantum, 48 hours per method (72 h); for number of times that compound SI exceeds the reference drug SI, Axenic amastigote forms: in brackets, reference Glucantime
Method: (§8) Axenic amastigotes forms of L. infantum and L. braziliensis were cultured following the methodology described previously by Moreno et al.. Thus, promastigote transformation to amastigotes was obtained after three days of culture in M199 medium (Invitrogen, Leiden, The Netherlands) supplemented with 10% heat-inactivated FCS, 1 g/L β-alanine, 100 mg/L L-asparagine, 200 mg/L sacarose, 50 mg/L sodium pyruvate, 320 mg/L malic acid, 40 mg/L fumaric acid, 70 mg/L succinic acid, 200 mg/L α-ketoglutaric acid, 300 mg/L citric acid, 1.1 g/L sodium bicarbonate, 5 g/L MES, 0.4 mg/L hemin, and 10 mg/L gentamicin pH 5.4 at 37°C. The effect of each compound against axenic amastigotes forms was tested at 48 hours using a Neubauer haemocytometric chamber. The antileishmanial effect is expressed as the IC50.

[8] = test system: L. braziliensis axenic amastigote forms; experiment: Axenic amastigote forms assay; assay type: cell-based, Leishmania braziliensis; settings: for SI Axenic amastigote forms: IC50 macrophages/IC50 parasite form; for IC50: Leishmania braziliensis, 48 hours per method (72 h); for number of times that compound SI exceeds the reference drug SI, Axenic amastigote forms: in brackets, reference Glucantime
Method: as §8

[9] = test system: L. infantum intracellular amastigote forms; experiment: Intracellular amastigote forms assay in J774.2 macrophages; assay type: cell-based, Leishmania infantum; settings: for SI Intracellular amastigote forms / number of times that compound SI exceeds the reference drug SI, Intracellular amastigote forms: L. infantum; for SI Intracellular amastigote forms: IC50 macrophages/IC50 parasite form; for number of times that compound SI exceeds the reference drug SI, Intracellular amastigote forms: in brackets, reference Glucantime; for IC50: Leishmania infantum, L. infantum in J774.2 macrophages, 72 h
Method: as §3, §4

[10] = test system: L. braziliensis promastigotes; experiment: Ultrastructural alterations (TEM); assay type: cell-based, Leishmania braziliensis; settings: IC25, 96 hours
Method: as §6, §7

| SMILES | change in excreted catabolites [1] | SI Promastigote forms [2] | times SI exceeds the reference drug SI (all forms) [2] | number of times that compound SI exceeds the reference drug SI, Promastigote forms [2] | change in excreted catabolites [3] | SI Intracellular amastigote forms [4] | number of times that compound SI exceeds the reference drug SI, Intracellular amastigote forms [4] | IC50 [4] [µM] | decrease of average number of amastigotes per infected macrophage cell (L. braziliensis) [%] | infection rate decrease, percentage of inhibition capacity (L. braziliensis) [%] | ultrastructural alterations by TEM [5] | SI Promastigote forms [6] | IC50 [6] [µM] | number of times that compound SI exceeds the reference drug SI, Promastigote forms [6] | IC50 (J774.2 macrophages) [µM] | decrease of average number of amastigotes per infected macrophage cell (L. infantum) [%] | infection rate decrease, percentage of inhibition capacity (L. infantum) [%] | SI Axenic amastigote forms [7] | IC50 [7] [µM] | number of times that compound SI exceeds the reference drug SI, Axenic amastigote forms [7] | other results |
| --- | --- | --- | --- | --- | --- | --- | --- | --- | --- | --- | --- | --- | --- | --- | --- | --- | --- | --- | --- | --- | --- |
| C[C@H]1O[C@H](Oc2cc(O)c3c(=O)c(O[C@@H]4O[C@H](CO)[C@@H](O)[C@H](O)[C@H]4O)c(-c4ccc(O)c(O)c4)oc3c2)[C@@H](O)[C@@H](O)[C@@H]1O [Compound 7, petiolaroside] | an increase in the production of malate, succinate, ethanol, and lactate, but a decrease of excreted acetate and alanine levels | >40.8 | more than 50 times | 51 | decreases in the excretion of acetate | >29.5 | 59 | 33.9 ± 3.5 | 55 | 69 | no induction of substantial alterations | >47.4 | 21.1 ± 1.7 | 79 | > 1000 | 49 | 77 | >51.5 | 19.4 ± 1.4 | 86 | IC50 [2]: 24.5 ± 1.1 µM; SI Axenic amastigote forms [8]: >51.3; IC50 [8]: 19.5 ± 0.8 µM; number of times that compound SI exceeds the reference drug SI, Axenic amastigote forms [8]: 103; SI Intracellular amastigote forms [9]: >36.0; number of times that compound SI exceeds the reference drug SI, Intracellular amastigote forms [9]: 72; IC50 [9]: 27.8 ± 1.4 µM; ultrastructural alterations by TEM [10]: All these changes occurred |
| CC(=O)O[C@H]1[C@H](Oc2c(-c3ccc(O)c(O)c3)oc3cc(O[C@@H]4O[C@@H](C)[C@H](O)[C@@H](O)[C@H]4O)cc(O)c3c2=O)O[C@H](CO)[C@@H](O)[C@@H]1O [Compound 8, 2′′-acetylpetiolaroside] | an increase in the excretion of succinate, and acetate, followed by malate, alanine, lactate and ethanol | 52.4 | more than 50 times | 66 | decreases in the excretion of acetate | >49.8 | 100 | 20.1 ± 1.7 | 82 | 88 | many of the parasites adopted distorted shapes with distorted cytoplasm | >34.5 | 29 ± 1.5 | 58 | > 1000 | 78 | 95 | >54.3 | 18.4 ± 1.3 | 91 | SI Axenic amastigote forms [8]: >39.2; IC50 [8]: 25.5 ± 0.7 µM; number of times that compound SI exceeds the reference drug SI, Axenic amastigote forms [8]: 78; SI Intracellular amastigote forms [9]: >31.2; number of times that compound SI exceeds the reference drug SI, Intracellular amastigote forms [9]: 62; IC50 [9]: 32.1 ± 2 µM; ultrastructural alterations by TEM [10]: induced changes in the shape of parasites, with them showing completely altered forms |
| CC(=O)OC[C@H]1O[C@@H](Oc2cc(OC(C)=O)c3c(=O)c(O[C@@H]4O[C@H](COC(C)=O)[C@@H](OC(C)=O)[C@H](OC(C)=O)[C@H]4OC(C)=O)c(-c4ccc(OC(C)=O)cc4)oc3c2)[C@H](OC(C)=O)[C@@H](OC(C)=O)[C@@H]1OC(C)=O [Compound 6] | an increase in the excretion of succinate, and acetate, followed by malate, alanine, lactate and ethanol | >43.3 | more than 50 times | 54 | decreases in the excretion of acetate | >32.9 | 66 | 30.4 ± 2.7 | 69 | 82 | induced empty vacuoles, lipid vacuoles, and a large number of electrodense vesicles | >31.9 | 31.3 ± 3 | 53 | > 1000 | 24 | 71 | >32.8 | 30.5 ± 2.3 | 55 | IC50 [2]: 23.1 ± 4.6 µM; SI Axenic amastigote forms [8]: >35.7; IC50 [8]: 28 ± 1.6 µM; number of times that compound SI exceeds the reference drug SI, Axenic amastigote forms [8]: 71; SI Intracellular amastigote forms [9]: 24.8; number of times that compound SI exceeds the reference drug SI, Intracellular amastigote forms [9]: 50 |
